From US7943551B2, “3-cyclopropyl-4-(3-thiobenzoyl) pyrazoles and their use as herbicides” (Bayer Cropscience AG, priority 2007, dated 2011)

What was measured:
Format in all cases: in vivo
Chenopodium album = test: Pre-emergence herbicidal action; conditions: 320 g of a.i./ha
Source text: (§1) Seeds or rhizome pieces of mono- and dicotyledonous harmful plants are placed in sandy loam in pots of a diameter of 9 to 13 cm and covered with soil. The herbicides, formulated as emulsifiable concentrates or dusts, are applied to the surface of the covering soil in the form of aqueous dispersions or suspensions or emulsions at an application rate of 300 to 800 l of water/ha (converted), at a dosage of 320 grams per hectare. For further cultivation of the plants, the pots are then kept in a greenhouse under optimum conditions. The visual scoring of the damage to the harmful plants is carried out 3-4 weeks after the treatment. Here, the compounds of Nos. 1-3, 1-15, 1-44 and 1-1407 show an activity of at least 90% against Echinochloa crus galli. The compounds of Nos. 1-15, 1-45, 1-1407 and 1-1419 show an activity of at least 90% against Abutilon theophrasti. The compounds of Nos. 1-3, 1-45, 1-1406 and 1-1418 show an activity of at least 90% against Amaranthus retroflexus. The compounds of Nos. 1-44, 1-1406, 1-1407 and 1-1419 show an activity of at least 90% against Stellaria media.
(§2) The comparative tests of Tables 1 to 24 below show the superiority of the compounds according to the invention over the compounds known from the prior art.
(§3) • ABUTH Abutilon theophrasti ALOMY Alopecurus myosuroides • AMARE Amaranthus retroflexus AVEFA Avena fatua • CHEAL Chenopodium album ECHCG Echinochloa crus galli • GALAP Galium aparine LOLMU Lolium multiflorum • MATIN Matricaria inodora PHBPU Pharbitis purpureum • POLCO Fallopia convolvulus STEME Stellaria media • VERPE Veronica persica VIOTR Viola tricolor • XANST Xanthium strumarium Crop Plants • GLXMA Glycine max (soybeans) TRZAS Triticum aestivum (wheat) • ZEAMX Zea mays (corn)

Galium aparine = test: Pre-emergence herbicidal action; conditions: 320 g of a.i./ha
Source text: as §1, §2, §3

Glycine max (soybeans) = test: Pre-emergence damage of crop plants; conditions: 320 g of a.i./ha, crop plant soybeans
Source text: as §1, §2, §3

[1] = test system: Triticum aestivum (wheat); test: Pre-emergence damage of crop plants; conditions: 320 g of a.i./ha, crop plant wheat
Source text: as §1, §2, §3

Alopecurus myosuroides = test: Post-emergence herbicidal action; conditions: 80 g of a.i./ha
Experimental: (§4) Seeds of mono- and dicotyledonous harmful plants are placed in sandy loam in cardboard pots, covered with soil and grown in the greenhouse under good growth conditions. Two to three weeks after sowing, the test plants are treated at the three-leaf stage. The compounds according to the invention, which are formulated as wettable powders or as emulsion concentrates, are sprayed at an application rate of 600 to 800 l of water/ha (converted) in a dosage of 80 grams per hectare onto the surface of the green plant parts. The visual scoring of the damage to the harmful plants is carried out 3-4 weeks after the treatment. Here, the compounds of Nos. 1-39, 1-40, 1-1382 and 1-2091 show an activity of at least 90% against Echinochloa crus galli. The compounds of Nos. 1-3, 1-44 and 1-2091 shown an activity of at least 90% against Abutilon theophrasti. The compounds of Nos. 1-39, 1-40 and 1-1382 show an activity of at least 90% against Veronica persica. The compounds of Nos. 1-3, 1-38, 1-39, 1-1406 and 1-1407 show an activity of at least 90% against Stellaria media.
as §2, §3

Avena fatua = test: Post-emergence herbicidal action; conditions: 80 g of a.i./ha
Experimental: as §4, §2, §3

Echinochloa crus galli = test: Post-emergence herbicidal action; conditions: 80 g of a.i./ha, visual scoring 3-4 weeks after treatment, read-out: Herbicidal activity in % against ECHCG
Experimental: as §4, §2, §3

Lolium multiflorum = test: Post-emergence herbicidal action; conditions: 80 g of a.i./ha
Experimental: as §4, §2, §3

Abutilon theophrasti = test: Post-emergence herbicidal action; conditions: Abutilon theophrasti, 80 g of a.i./ha, visual scoring 3-4 weeks after treatment, read-out: Herbicidal activity in % against ABUTH
Experimental: as §4, with “The compounds according to the invention, which are formulated as wettable powders or as emulsion concentrates, are sprayed at an application rate of 600 to 800 l of water/ha (converted) in a dosage of 80 grams per hectare onto the surface of the green plant parts.” left out
as §2, §3

SMILES	Herbicidal activity in % CHEAL (Chenopodium album) [%]	Herbicidal activity in % GALAP (Galium aparine) [%]	Damage to GLXMA (Glycine max (soybeans))	Damage to TRZAS [1]	Herbicidal activity in % against ALOMY (Alopecurus myosuroides) [%]	Herbicidal activity in % against AVEFA (Avena fatua) [%]	pest or weed control at 80 g/ha (Echinochloa crus galli) [%]	Herbicidal activity in % against LOLMU (Lolium multiflorum) [%]	pest or weed control at 80 g/ha (Abutilon theophrasti) [%]
CCS(=O)(=O)c1c(S(C)(=O)=O)ccc(C(=O)c2c(C3CC3)nn(C)c2O)c1C [drawing 38, reference compound]	90	90	50	50	–	–	–	–	–
Cn1nc(C2CC2)c(C(=O)c2ccc(Cl)c(S(=O)(=O)CC3CC3)c2Cl)c1O [drawing 55]	–	–	–	–	70	50	90	60	70
Cn1nc(C2CC2)c(C(=O)c2ccc(Cl)c(S(C)(=O)=O)c2Cl)c1O [drawing 56, reference compound]	–	–	–	–	20	20	30	20	60
